Measurements taken from patent US9265253B2, “Use of macrocyclic picolinamides as fungicides” (DOW AGROSCIENCES LLC, priority 2013, dated 2016).
Where two headings read alike, the source gives them in different places.

Assays:
Assay type in all cases: in vivo
[1] = system: Mycosphaerella graminicola; Anamorph: Septoria tritici; experiment: Leaf Blotch of Wheat (SEPTTR) disease control; details: Zymoseptoria tritici; for pest or weed control at 100 ppm: rate 100 ppm
Summary of the method: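 Protective or curative format: Septoria tritici inoculation either preceded or followed fungicide application to first-leaf Yuma wheat. Severity scored 0–100%; control expressed versus untreated.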

[2] = system: Puccinia triticina; Synonym: Puccinia recondite f. Sp. Tritici; experiment: Wheat Brown Rust (PUCCRT) disease control; details: Puccinia triticina, topical; for pest or weed control at 100 ppm: rate 100 ppm
Summary of the method: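 Brown rust on first-leaf Yuma wheat: spore inoculation before or after spray application (acetone/Triton X-100 solution, or EC with Trycol in track spray), overnight 100% RH at 22 °C, disease developed at 24 °C. Severity scored 0–100% and converted to percent control against untreated.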

[3] = system: Magnaporthe grisea; Anamorph: Pyricularia oryzae; experiment: whole plant or invertebrate; details: Pyricularia oryzae, topical, 24 h, read-out: Disease Control PYRIOR 1 DP
[4] = system: Phakopsora pachyrhizi; experiment: Asian Soybean Rust (PHAKPA) disease control; details: Phakopsora pachyrhizi, topical
Protocol: Technical grades of materials were dissolved in acetone, which were then mixed with nine volumes of water containing 0.011% Tween 20. The fungicide solutions were applied onto soybean seedlings using an automated booth sprayer to run-off. All sprayed plants were allowed to air dry prior to further handling.
Soybean plants (variety Williams 82) were grown in soil-less Metro mix, with one plant per pot. Two weeks old seedlings were used for testing. Plants were inoculated either 3 days prior to or 1 day after fungicide treatments. Plants were incubated for 24 h in a dark dew room at 22° C. and 100% RH then transferred to a growth room at 23° C. for disease to develop. Disease severity was assessed on the sprayed leaves.

[5] = 24 h, 1 Day Protectant, read-out: SEPTTR 1 DP disease control
[6] = 24 h, 1 Day Protectant, rate 121.5 g/H, read-out: SEPTTR 1 DP disease control
[7] = 72 h, 3 Day Curative, read-out: SEPTTR 3 DC disease control
[8] = 72 h, 3 Day Curative, rate 121.5 g/H, read-out: SEPTTR 3 DC disease control
[9] = 24 h, 1 Day Protectant, read-out: PUCCRT 1 DP disease control
[10] = 24 h, 1 Day Protectant, rate 121.5 g/H, read-out: PUCCRT 1 DP disease control
[11] = 72 h, 3 Day Curative, read-out: PUCCRT 3 DC disease control
[12] = 72 h, 3 Day Curative, rate 121.5 g/H, read-out: PUCCRT 3 DC disease control
[13] = 24 h, 1 Day Protectant, read-out: Disease Control PHAKPA 1DP
[14] = 72 h, 3 Day Curative, read-out: Disease Control PHAKPA 3DC

Row | Structure (SMILES) | pest or weed control at 100 ppm [1, 5] [%] | pest or weed control at 121.5 g/ha [1, 6] [%] | pest or weed control at 100 ppm [1, 7] [%] | pest or weed control at 121.5 g/ha [1, 8] [%] | pest or weed control at 100 ppm [2, 9] [%] | pest or weed control at 121.5 g/ha [2, 10] [%] | pest or weed control at 100 ppm [2, 11] [%] | pest or weed control at 121.5 g/ha [2, 12] [%] | pest or weed control at 100 ppm [3] [%] | pest or weed control at 25 ppm [4, 13] [%] | pest or weed control at 25 ppm [4, 14] [%] | pest or weed control at 121.5 g/ha ([1]; 24 h, Wheat Leaf Blotch, 1 Day Protectant, rate 121.5 g/H (low volume application), read-out: Disease control SEPTTR 1 DP) [%] | pest or weed control at 121.5 g/ha ([1]; 72 h, Wheat Leaf Blotch, 3 Day Curative, rate 121.5 g/H (low volume application), read-out: Disease control SEPTTR 3 DC) [%] | pest or weed control at 121.5 g/ha ([2]; 24 h, Wheat Brown Rust, 1 Day Protectant, rate 121.5 g/H (low volume application), read-out: Disease control PUCCRT 1 DP) [%] | pest or weed control at 121.5 g/ha ([2]; 72 h, Wheat Brown Rust, 3 Day Curative, rate 121.5 g/H (low volume application), read-out: Disease control PUCCRT 3 DC) [%]
1 | COc1ccnc(C(=O)N[C@H]2CCC[C@H](Cc3ccc(F)cc3)[C@@H](OCC(C)C)[C@H](C)OC2=O)c1OCOC(C)=O [Compound F102] | 80 to 100 | 80 to 100 | 80 to 100 | 80 to 100 | 80 to 100 | 80 to 100 | 80 to 100 | 0 to 80 |  |  |  |  |  |  | 
2 | CCO[C@@H]1[C@@H](Cc2ccccc2)CCC[C@H](NC(=O)c2nccc(OC)c2OC(C)=O)C(=O)O[C@H]1C [Compound F87] |  | 80 to 100 |  | 80 to 100 |  | 80 to 100 |  | 80 to 100 | 80 to 100 |  |  |  |  |  | 
3 | COc1ccnc(C(=O)N[C@H]2CCC[C@H](CC3CCCCC3)[C@@H](OCC(C)C)[C@H](C)OC2=O)c1OCOC(C)=O [Compound F113] | 80 to 100 | 80 to 100 | 80 to 100 | 80 to 100 | 80 to 100 | 80 to 100 | 80 to 100 | 80 to 100 | 80 to 100 | 80 to 100 | 0 to 80 |  |  |  | 
4 | COc1ccc(C[C@H]2CCC[C@H](NC(=O)c3nccc(OC)c3OCOC(C)=O)C(=O)O[C@@H](C)[C@@H]2Oc2ccccc2)cc1 [Compound F114] | 80 to 100 | 80 to 100 | 80 to 100 | 80 to 100 | 80 to 100 | 80 to 100 | 80 to 100 | 0 to 80 | 80 to 100 |  |  |  |  |  | 
5 | COc1ccnc(C(=O)N[C@H]2CCC[C@H](Cc3ccc(C)cc3)[C@@H](OCC(C)C)[C@H](C)OC2=O)c1OCOC(C)=O [Compound F126] | 80 to 100 | 80 to 100 | 80 to 100 | 80 to 100 | 80 to 100 | 80 to 100 | 80 to 100 | 0 to 80 | 80 to 100 |  |  |  |  |  | 
6 | CCCO[C@@H]1[C@@H](Cc2ccccc2)CCC[C@H](NC(=O)c2nccc(OC)c2OC(=O)CCOC)C(=O)O[C@H]1C [Compound F198] |  |  |  |  |  |  |  |  | 80 to 100 |  |  | 80 to 100 | 80 to 100 | 80 to 100 | 80 to 100
7 | CCOCC(=O)OCOc1c(OC)ccnc1C(=O)N[C@H]1CCC[C@H](CC2CCCCC2)[C@@H](OCC(C)C)[C@H](C)OC1=O [Compound F175] | 80 to 100 | 80 to 100 | 80 to 100 | 0 to 80 | 80 to 100 | 80 to 100 | 80 to 100 | 0 to 80 | 80 to 100 |  |  |  |  |  | 
8 | CCOCC(=O)OCOc1c(OC)ccnc1C(=O)N[C@H]1CCC[C@H](Cc2ccccc2)[C@@H](OCC2CC2)[C@H](C)OC1=O [Compound F173] | 80 to 100 | 80 to 100 | 80 to 100 | 80 to 100 | 80 to 100 | 80 to 100 | 80 to 100 | 80 to 100 | 80 to 100 | 80 to 100 | 80 to 100 |  |  |  | 
9 | COc1ccnc(C(=O)N[C@H]2CCC[C@H](Cc3ccccc3)[C@@H](OCC3CC3)[C@H](C)OC2=O)c1OCOC(=O)C(C)C [Compound F152] | 80 to 100 | 80 to 100 | 80 to 100 | 80 to 100 | 80 to 100 | 80 to 100 | 80 to 100 | 80 to 100 | 80 to 100 | 80 to 100 | 80 to 100 |  |  |  | 
10 | CCOCC(=O)OCOc1c(OC)ccnc1C(=O)N[C@H]1CCC[C@H](CCF)[C@@H](OCC(C)C)[C@H](C)OC1=O [Compound F181] | 80 to 100 | 80 to 100 | 80 to 100 | 80 to 100 | 80 to 100 | 80 to 100 | 80 to 100 | 80 to 100 | 80 to 100 | 80 to 100 | 80 to 100 |  |  |  | 
11 | CCCO[C@@H]1[C@@H](Cc2ccccc2)CCC[C@H](NC(=O)c2nccc(OC)c2OC(C)=O)C(=O)O[C@H]1C [Compound F88] |  | 80 to 100 |  | 80 to 100 |  | 80 to 100 |  | 80 to 100 | 80 to 100 |  |  |  |  |  | 
12 | CCCO[C@@H]1[C@@H](Cc2ccc(F)cc2)CCC[C@H](NC(=O)c2nccc(OC)c2OCOC(C)=O)C(=O)O[C@H]1C [Compound F101] | 80 to 100 | 80 to 100 | 80 to 100 | 80 to 100 | 80 to 100 | 80 to 100 | 80 to 100 | 80 to 100 | 80 to 100 | 80 to 100 | 0 to 80 |  |  |  | 
13 | CCOCC(=O)OCOc1c(OC)ccnc1C(=O)N[C@H]1CCC[C@H](Cc2ccc(F)cc2)[C@@H](OCC(C)C)[C@H](C)OC1=O [Compound F168] | 80 to 100 | 80 to 100 | 80 to 100 | 80 to 100 | 80 to 100 | 80 to 100 | 80 to 100 | 80 to 100 |  | 80 to 100 | 0 to 80 |  |  |  | 
14 | COc1ccnc(C(=O)N[C@H]2CCC[C@H](Cc3ccccc3)[C@@H](OCC3CC3)[C@H](C)OC2=O)c1OCOC(C)=O [Compound F107] | 80 to 100 | 80 to 100 | 80 to 100 | 80 to 100 | 80 to 100 | 80 to 100 | 80 to 100 | 80 to 100 | 80 to 100 | 80 to 100 | 80 to 100 |  |  |  | 
15 | COc1ccc(C[C@H]2CCC[C@H](NC(=O)c3nccc(OC)c3OCOC(C)=O)C(=O)O[C@@H](C)[C@@H]2OCC(C)C)cc1 [Compound F118] | 80 to 100 | 80 to 100 | 80 to 100 | 80 to 100 | 80 to 100 | 80 to 100 | 80 to 100 | 80 to 100 | 80 to 100 | 80 to 100 | 0 to 80 |  |  |  | 
16 | CCCO[C@@H]1[C@@H](Cc2ccc(OC)cc2)CCC[C@H](NC(=O)c2nccc(OC)c2OCOC(C)=O)C(=O)O[C@H]1C [Compound F119] | 80 to 100 | 80 to 100 | 80 to 100 | 80 to 100 | 80 to 100 | 80 to 100 | 80 to 100 | 80 to 100 | 80 to 100 | 80 to 100 | 0 to 80 |  |  |  | 
